{"source": "patent US10265276B2", "about": "“Pharmaceutical composition for preventing or treating arthritis or inflammatory disease containing 2-methoxy-4-(3-(4-methoxyphenyl)propyl-1-en-1-yl)phenol as active ingredient” (CHUNGBUK NATIONAL UNIVERSITY INDUSTRY-ACADEMIC COOPERATION …, priority 2015, dated 2019)", "key": {"RAW 264.7 cells [1]": {"tested_on": "RAW 264.7 cells", "assay": "Nitrite assay (NO generation) in LPS-induced RAW 264.7 cells", "format": "cell-based, mouse", "conditions": "LPS (1 µg/mL) and MMPP (0 to 4 µg/mL)", "method": "6. Nitrite assay: RAW 264.7 cells were added to a 96-well plate at a density of 1×10^4 cells/well, and LPS […] and TNF-α (10 ng/mL) were added or not added for 24 hours in the presence or absence of various concentrations of MMPP. Accumulation of nitrites in a supernatant was analyzed using a nitric oxide assay kit commercially available from iNtRON Biotechnology (Seongnam, Korea).\n(§1) In Experimental Example 4, a luciferase activity assay was carried out to determine whether MMPP inhibited generation of LPS-induced infective factors in RAW 264.7 cells. RAW 264.7 cells were transiently infected with an iNOS-luciferase construct, treated with LPS (1 μg/mL) alone or a combination of MMPP and LPS, and then activated for 12 hours."}, "iNOS": {"tested_on": "iNOS", "assay": "iNOS-luciferase activity assay in LPS-induced RAW 264.7 cells", "format": "cell-based, mouse", "conditions": "LPS (1 µg/mL) and MMPP (0 to 4 µg/mL)", "method": "9. Cell infection: RAW 264.7 cells (5×10^4 cells/well) were added to a 24-well plate, and transiently infected with a STAT3-luciferase reporter plasmid and an iNOS-luciferase reporter plasmid using a Lipofectamine PLUS and plasmid mixture in OPTI-MEN.\nas §1"}, "[2]": {"tested_on": "CAIA-induced C57BL/6 mice", "assay": "Collagen antibody-induced arthritis (CAIA) model", "format": "in vivo, mouse", "method": "14. Induction of rheumatoid arthritis in C57BL/6 mice: To induce rheumatoid arthritis, anti-collagen-II mAbs (CII-Ab, Arthrogen-CIA Arthritogenic Monoclonal Antibody, #53010: Chondrex, Inc., WA, USA) were intraperitoneally (i.p.) injected into 7-week-old male mice on the first day, and 50 μg of LPS was injected on the third day. To evaluate the severity of arthritis, a scoring system was applied according to the criteria.\n0. No erythema and swelling are observed.\n1. Slight erythema is observed in tarsals and ankle joints.\n2. Slight erythema and swelling are observed from an ankle joint to the midfoot.\n3. Erythema and swelling extending from ankle joints to the metatarsals are observed.\n4. Erythema and severe swelling were observed throughout the ankles, feet, and fingers.\nThe sum of final scores was recorded daily until the sum reached 16. On the 18th day, each of the mice was anesthetized, and then located on a radiographic view box. Thereafter, a location of each of the mice was adjusted so that the mouse was disposed at a distance of 90 cm from an X-ray source. The radioanalysis on hind legs with arthritis was performed by irradiating the hind legs at […] for 0.01 seconds using an X-ray machine (BLD-150RK, Hradec Kralove, Czech Republic).\n15. Immunohistochemical assay: An immunohistochemical assay was carried out using an avidin-biotin-peroxidase method known in the art. Each of joint tissue samples collected from the mice was fixed with formalin, and embedded in paraffin. These samples were continuously microtomed into sections with a thickness of 4 μm. Each of the sections was stained with haematoxylin/eosin (H&E), anti-COX-2 and anti-iNOS antibodies (Caymen Chemical, Ann Arbor, Mich.).\nReferring to FIG. 10(A), MMPP (5 mg/kg, p.o.) (dissolved in 100 μL of PBS including 0.5 μL of DMSO), a vehicle (a negative control), or indomethacin (5 mg/kg, p.o./dissolved in […] of PBS after the dissolution) was administered daily to 7-week-old male C57BL/6 mice for 18 days."}, "RAW 264.7 cells [3]": {"tested_on": "RAW 264.7 cells", "assay": "Cell viability (MTT assay) in RAW 264.7 cells", "format": "cell-based, mouse", "conditions": "up to 4 mg/mL", "method": "As mouse macrophages, RAW 264.7 macrophages were cultured in a DMEM medium supplemented with 10% FBS. […] of the medium was treated with MMPP, and then stabilized for an hour.\nAn MTT reagent was added at a concentration of 0.5 mg/mL, and the cells were cultured at 37° C. in an incubator. After the medium was completely removed when 70% of the cells formed crystals, […] of DMSO was added to dissolve the crystals. Subsequently, the optical density was measured at 550 nm.\nMorphological changes of the cells were observed under a microscope, and the cell viability was determined using an MTT assay."}, "[4]": {"conditions": "5 mg/kg, p.o. daily, last (18th) day"}}, "data": [{"smiles": "COc1ccc(C/C=C/c2ccc(O)c(OC)c2)cc1", "note": "[MMPP, 2-methoxy-4-(3-(4-methoxyphenyl)prop-1-en-1-yl)phenol]", "values": [{"measurement": "NO generation", "setting": "RAW 264.7 cells [1]", "result": "reduced in a concentration-dependent manner"}, {"measurement": "iNOS luciferase activity", "setting": "iNOS", "result": "reduced in a concentration-dependent manner"}, {"measurement": "degrees of bone destruction and fibrosis in ankle joints (histopathologic evaluation)", "setting": "[2]; 5 mg/kg", "result": "remarkably reduced"}, {"measurement": "tissue edema and bone destruction of hind legs (radiographic inspection)", "setting": "[2]; 5 mg/kg", "result": "significantly reduced"}, {"measurement": "clinical score", "setting": "[2]; [4]", "result": "approximately 4.67"}, {"measurement": "clinical score lower than that of the CAIA group", "setting": "[2]; [4]", "result": 66.5, "unit": "%"}, {"measurement": "anti-arthritic effect in CAIA model", "setting": "[2]; mouse, in vivo", "result": "had an anti-arthritic effect"}, {"measurement": "toxicity", "setting": "RAW 264.7 cells [3]; RAW 264.7 cells", "result": "no toxicity"}, {"measurement": "viability of the LPS-induced RAW 264.7 cells", "setting": "RAW 264.7 cells [3]", "result": "not affected"}]}]}
